Results as given in US20260125421A1, “ANTIVIRAL COMPOUNDS” (Hoffmann-La Roche Inc., priority 2022, published 2026).

Tests used:
Assay in all cases: biochemical
SARS-CoV-2 3CL^pro = biological target: T1, SARS-CoV-2 3CL^pro (Severe acute respiratory syndrome coronavirus 2, UniProt P0DTD1)
T1 construct: […]; made in house; host or cells: Escherichia coli

SARS-CoV 3CL^pro = SARS-CoV 3CL^pro (Severe acute respiratory syndrome coronavirus, UniProt P0C6X7)
HCoV-229E 3CL^pro = biological target: T2, HCoV-229E 3CL^pro (Human coronavirus 229E, UniProt P0C6X1)
T2 construct: […]; made in house; host or cells: E. coli BL21 (DE3)
T2 sequence (P0C6X1 2966-3267): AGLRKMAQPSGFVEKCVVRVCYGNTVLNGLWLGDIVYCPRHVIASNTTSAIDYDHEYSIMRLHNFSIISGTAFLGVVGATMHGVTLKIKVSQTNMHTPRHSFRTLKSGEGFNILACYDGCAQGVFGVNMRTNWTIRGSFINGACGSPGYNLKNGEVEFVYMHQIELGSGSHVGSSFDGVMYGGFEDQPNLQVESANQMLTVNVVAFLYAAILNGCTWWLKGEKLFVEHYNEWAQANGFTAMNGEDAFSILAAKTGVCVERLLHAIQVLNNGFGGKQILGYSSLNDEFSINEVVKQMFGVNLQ

MERS-CoV 3CL^pro = MERS-CoV 3CL^pro (Middle East respiratory syndrome-related coronavirus, UniProt K9N7C7)
Chain of MERS-CoV 3CL^pro (K9N7C7 3248-3553): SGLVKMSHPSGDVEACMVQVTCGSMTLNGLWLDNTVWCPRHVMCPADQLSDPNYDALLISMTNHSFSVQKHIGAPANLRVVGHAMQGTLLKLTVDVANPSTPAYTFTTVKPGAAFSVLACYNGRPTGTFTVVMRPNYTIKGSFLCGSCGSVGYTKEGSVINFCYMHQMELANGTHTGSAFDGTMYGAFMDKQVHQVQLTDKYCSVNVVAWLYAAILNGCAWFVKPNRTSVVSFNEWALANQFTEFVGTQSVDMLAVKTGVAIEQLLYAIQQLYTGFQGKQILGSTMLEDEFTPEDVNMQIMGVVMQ

`CC1(C)CC(CN(NC(=O)[C@@H]2[C@H]3CCC[C@H]3CN2C(=O)[C@@H](NC(=O)[C@@H]2CC2(F)F)C(C)(C)C)C(=O)[C@H](F)Cl)C(=O)N1` (mixture of isomers) [Example 3, (1S)—N-[(1S)-1-[(3S,3aS,6aR)-3-[[[(2R)-2-chloro-2-fluoro-acetyl]-[rac-(5,5-dimethyl-2-oxo-pyrrolidin-3-yl)methyl]amino]carbamoyl]-3,3a,4,5,6,6a-hexahydro-1H-cyclopenta[c]pyrrole-2-carbonyl]-2,2-dimethyl-propyl]-2,2-difluoro-cyclopropanecarboxamide] showed an IC50 (SARS-CoV-2 3CL^pro) of 23 nM, an IC50 (SARS-CoV 3CL^pro) of 28 nM and an IC50 (HCoV-229E 3CL^pro) of 2520 nM. It also gave an IC50 (MERS-CoV 3CL^pro) of 850 nM.
`CC[C@H](C)[C@H](NC(=O)C1(F)CC1)C(=O)N1C[C@H]2[C@@H]([C@H]1C(=O)NN(C[C@@H]1CC(C)(C)NC1=O)C(=O)[C@H](F)Cl)C2(C)C` [Example 1a, N-[(1S,2S)-1-[(1R,2S,5S)-2-[[[(2R)-2-chloro-2-fluoro-acetyl]-[[(3S)-5,5-dimethyl-2-oxo-pyrrolidin-3-yl]methyl]amino]carbamoyl]-6,6-dimethyl-3-azabicyclo[3.1.0]hexane-3-carbonyl]-2-methyl-butyl]-1-fluoro-cyclopropanecarboxamide] was tested, and the IC50 (SARS-CoV-2 3CL^pro) was 48 nM, the IC50 (SARS-CoV 3CL^pro) was 84 nM and the IC50 (HCoV-229E 3CL^pro) was 421 nM. The IC50 (MERS-CoV 3CL^pro) was 635 nM.
For `CC[C@H](C)[C@H](NC(=O)C1(F)CC1)C(=O)N1C[C@H]2[C@@H]([C@H]1C(=O)NN(C[C@H]1CC(C)(C)NC1=O)C(=O)[C@H](F)Cl)C2(C)C` [Example 1b, N-[(1S,2S)-1-[(1R,2S,5S)-2-[[[(2R)-2-chloro-2-fluoro-acetyl]-[[(3R)-5,5-dimethyl-2-oxo-pyrrolidin-3-yl]methyl]amino]carbamoyl]-6,6-dimethyl-3-azabicyclo[3.1.0]hexane-3-carbonyl]-2-methyl-butyl]-1-fluoro-cyclopropanecarboxamide], the IC50 (SARS-CoV-2 3CL^pro) was 13 nM, the IC50 (SARS-CoV 3CL^pro) was 18 nM and the IC50 (HCoV-229E 3CL^pro) was 131 nM. The IC50 (MERS-CoV 3CL^pro) was 234 nM.
Compound `CC1(C)C[C@@H](CN(NC(=O)[C@@H]2[C@H]3CCC[C@H]3CN2C(=O)[C@@H](NC(=O)[C@@H]2CC2(F)F)C(C)(C)C)C(=O)[C@@H](F)Cl)C(=O)N1` [Example 2a, (1S)—N-[(1S)-1-[(3S,3aS,6aR)-3-[[[(2S)-2-chloro-2-fluoro-acetyl]-[[(3S)-5,5-dimethyl-2-oxo-pyrrolidin-3-yl]methyl]amino]carbamoyl]-3,3a,4,5,6,6a-hexahydro-1H-cyclopenta[c]pyrrole-2-carbonyl]-2,2-dimethyl-propyl]-2,2-difluoro-cyclopropanecarboxamide] has an IC50 (SARS-CoV-2 3CL^pro) of 29 nM, an IC50 (SARS-CoV 3CL^pro) of 64 nM and an IC50 (HCoV-229E 3CL^pro) of 7850 nM. It also gave an IC50 (MERS-CoV 3CL^pro) of 2910 nM.
Compound `CC1(C)C[C@H](CN(NC(=O)[C@@H]2[C@H]3CCC[C@H]3CN2C(=O)[C@@H](NC(=O)[C@@H]2CC2(F)F)C(C)(C)C)C(=O)[C@@H](F)Cl)C(=O)N1` [Example 2b, (1S)—N-[(1S)-1-[(3S,3aS,6aR)-3-[[[(2S)-2-chloro-2-fluoro-acetyl]-[[(3R)-5,5-dimethyl-2-oxo-pyrrolidin-3-yl]methyl]amino]carbamoyl]-3,3a,4,5,6,6a-hexahydro-1H-cyclopenta[c]pyrrole-2-carbonyl]-2,2-dimethyl-propyl]-2,2-difluoro-cyclopropanecarboxamide] has an IC50 (SARS-CoV-2 3CL^pro) of 918 nM, an IC50 (SARS-CoV 3CL^pro) of 1720 nM and an IC50 (HCoV-229E 3CL^pro) greater than 10000 nM. For the same compound, the IC50 (MERS-CoV 3CL^pro) was greater than 10000 nM.
With `CC1(C)C[C@@H](CN(NC(=O)[C@@H]2[C@H]3CCC[C@H]3CN2C(=O)[C@@H](NC(=O)[C@@H]2CC2(F)F)C(C)(C)C)C(=O)[C@H](F)Cl)C(=O)N1` [Example 4, (1S)-N-[(1S)-1-[(3S,3aS,6aR)-3-[[[(2R)-2-chloro-2-fluoro-acetyl]-[[(3S)-5,5-dimethyl-2-oxo-pyrrolidin-3-yl]methyl]amino]carbamoyl]-3,3a,4,5,6,6a-hexahydro-1H-cyclopenta[c]pyrrole-2-carbonyl]-2,2-dimethyl-propyl]-2,2-difluoro-cyclopropanecarboxamide] the IC50 (SARS-CoV-2 3CL^pro) was 11 nM, the IC50 (SARS-CoV 3CL^pro) was 15 nM and the IC50 (HCoV-229E 3CL^pro) was 838 nM. For the same compound, the IC50 (MERS-CoV 3CL^pro) was 518 nM.
For `CC1(C)C[C@H](CN(NC(=O)[C@@H]2[C@H]3CCC[C@H]3CN2C(=O)[C@@H](NC(=O)[C@@H]2CC2(F)F)C(C)(C)C)C(=O)[C@H](F)Cl)C(=O)N1` [Example 5, (1S)-N-[(1S)-1-[(3S,3aS,6aR)-3-[[[(2R)-2-chloro-2-fluoro-acetyl]-[[(3R)-5,5-dimethyl-2-oxo-pyrrolidin-3-yl]methyl]amino]carbamoyl]-3,3a,4,5,6,6a-hexahydro-1H-cyclopenta[c]pyrrole-2-carbonyl]-2,2-dimethyl-propyl]-2,2-difluoro-cyclopropanecarboxamide], the IC50 (SARS-CoV-2 3CL^pro) was 81 nM, the IC50 (SARS-CoV 3CL^pro) was 137 nM and the IC50 (HCoV-229E 3CL^pro) was 4100 nM. It also gave an IC50 (MERS-CoV 3CL^pro) of 1240 nM.
For `CC1(C)C[C@@H](CN(NC(=O)[C@@H]2[C@H]3CCC[C@H]3CN2C(=O)[C@@H](NC(=O)C(F)F)C(C)(C)C)C(=O)[C@@H](F)Cl)C(=O)N1` [Example 6, N-[(1S)-1-[(3S,3aS,6aR)-3-[[[(2S)-2-chloro-2-fluoro-acetyl]-[[(3S)-5,5-dimethyl-2-oxo-pyrrolidin-3-yl]methyl]amino]carbamoyl]-3,3a,4,5,6,6a-hexahydro-1H-cyclopenta[c]pyrrole-2-carbonyl]-2,2-dimethyl-propyl]-2,2-difluoro-acetamide], the IC50 (SARS-CoV-2 3CL^pro) was 30 nM, the IC50 (SARS-CoV 3CL^pro) was 41 nM and the IC50 (HCoV-229E 3CL^pro) was greater than 10000 nM. For the same compound, the IC50 (MERS-CoV 3CL^pro) was 2950 nM.
`CCC(CC)[C@H](NC(=O)C(F)F)C(=O)N1C[C@@H]2CCC[C@@H]2[C@H]1C(=O)NN(C[C@@H]1CC(C)(C)NC1=O)C(=O)[C@H](F)Cl` [Example 7, N-[(1S)-1-[(3S,3aS,6aR)-3-[[[(2R)-2-chloro-2-fluoro-acetyl]-[[(3S)-5,5-dimethyl-2-oxo-pyrrolidin-3-yl]methyl]amino]carbamoyl]-3,3a,4,5,6,6a-hexahydro-1H-cyclopenta[c]pyrrole-2-carbonyl]-2-ethyl-butyl]-2,2-difluoro-acetamide] gave an IC50 (SARS-CoV-2 3CL^pro) of 7 nM, an IC50 (SARS-CoV 3CL^pro) of 9 nM and an IC50 (HCoV-229E 3CL^pro) of 130 nM. For the same compound, the IC50 (MERS-CoV 3CL^pro) was 162 nM.
`CCC(CC)[C@H](NC(=O)C(F)F)C(=O)N1C[C@@H]2CCC[C@@H]2[C@H]1C(=O)NN(C[C@H]1CC(C)(C)NC1=O)C(=O)[C@H](F)Cl` [Example 8] gave an IC50 (SARS-CoV-2 3CL^pro) of 129 nM, an IC50 (SARS-CoV 3CL^pro) of 256 nM and an IC50 (HCoV-229E 3CL^pro) of 6710 nM. For the same compound, the IC50 (MERS-CoV 3CL^pro) was 3020 nM.
For `CCC(CC)[C@H](NC(=O)[C@H](F)Cl)C(=O)N1C[C@@H]2CCC[C@@H]2[C@H]1C(=O)NN(C[C@@H]1CC(C)(C)NC1=O)C(=O)[C@H](F)Cl` [Example 9, (2R)-N-[(1S)-1-[(3S,3aS,6aR)-3-[[[(2R)-2-chloro-2-fluoro-acetyl]-[[(3S)-5,5-dimethyl-2-oxo-pyrrolidin-3-yl]methyl]amino]carbamoyl]-3,3a,4,5,6,6a-hexahydro-1H-cyclopenta[c]pyrrole-2-carbonyl]-2-ethyl-butyl]-2-chloro-2-fluoro-acetamide], the IC50 (SARS-CoV-2 3CL^pro) was 7 nM, the IC50 (SARS-CoV 3CL^pro) was 7 nM and the IC50 (HCoV-229E 3CL^pro) was 241 nM. It also gave an IC50 (MERS-CoV 3CL^pro) of 250 nM.
`CC1(C)C[C@H](CN(NC(=O)[C@@H]2[C@H]3CCC[C@H]3CN2C(=O)[C@@H](NC(=O)C(F)F)C(C)(C)C)C(=O)[C@H](F)Cl)C(=O)N1` [Example 10, N-[(1S)-1-[(3S,3aS,6aR)-3-[[[(2R)-2-chloro-2-fluoro-acetyl]-[[(3R)-5,5-dimethyl-2-oxo-pyrrolidin-3-yl]methyl]amino]carbamoyl]-3,3a,4,5,6,6a-hexahydro-1H-cyclopenta[c]pyrrole-2-carbonyl]-2,2-dimethyl-propyl]-2,2-difluoro-acetamide] gave an IC50 (SARS-CoV-2 3CL^pro) of 31 nM, an IC50 (SARS-CoV 3CL^pro) of 53 nM and an IC50 (HCoV-229E 3CL^pro) of 3040 nM. It also gave an IC50 (MERS-CoV 3CL^pro) of 794 nM.
`CC1(C)C[C@@H](CN(NC(=O)[C@@H]2[C@H]3CCC[C@H]3CN2C(=O)[C@@H](NC(=O)C(F)F)C(C)(C)C)C(=O)[C@H](F)Cl)C(=O)N1` [Example 11, N-[(1S)-1-[(3S,3aS,6aR)-3-[[[(2R)-2-chloro-2-fluoro-acetyl]-[[(3S)-5,5-dimethyl-2-oxo-pyrrolidin-3-yl]methyl]amino]carbamoyl]-3,3a,4,5,6,6a-hexahydro-1H-cyclopenta[c]pyrrole-2-carbonyl]-2,2-dimethyl-propyl]-2,2-difluoro-acetamide] showed an IC50 (SARS-CoV-2 3CL^pro) of 9 nM, an IC50 (SARS-CoV 3CL^pro) of 14 nM and an IC50 (HCoV-229E 3CL^pro) of 1690 nM. For the same compound, the IC50 (MERS-CoV 3CL^pro) was 909 nM.
With `CCC(CC)[C@H](NC(=O)C(F)F)C(=O)N1C[C@@H]2CCC[C@@H]2[C@H]1C(=O)NN(C[C@@H]1CC(C)(C)NC1=O)C(=O)[C@@H](F)Cl` [Example 12, N-[(1S)-1-[(3S,3aS,6aR)-3-[[[(2S)-2-chloro-2-fluoro-acetyl]-[[(3S)-5,5-dimethyl-2-oxo-pyrrolidin-3-yl]methyl]amino]carbamoyl]-3,3a,4,5,6,6a-hexahydro-1H-cyclopenta[c]pyrrole-2-carbonyl]-2-ethyl-butyl]-2,2-difluoro-acetamide] the IC50 (SARS-CoV-2 3CL^pro) was 9 nM, the IC50 (SARS-CoV 3CL^pro) was 13 nM and the IC50 (HCoV-229E 3CL^pro) was 1240 nM. It also gave an IC50 (MERS-CoV 3CL^pro) of 555 nM.
`CCC(CC)[C@H](NC(=O)[C@@H](F)Cl)C(=O)N1C[C@@H]2CCC[C@@H]2[C@H]1C(=O)NN(C[C@@H]1CC(C)(C)NC1=O)C(=O)[C@@H](F)Cl` [Example 13, (2S)-N-[(1S)-1-[(3S,3aS,6aR)-3-[[[(2S)-2-chloro-2-fluoro-acetyl]-[[(3S)-5,5-dimethyl-2-oxo-pyrrolidin-3-yl]methyl]amino]carbamoyl]-3,3a,4,5,6,6a-hexahydro-1H-cyclopenta[c]pyrrole-2-carbonyl]-2-ethyl-butyl]-2-chloro-2-fluoro-acetamide] gave an IC50 (SARS-CoV-2 3CL^pro) of 9 nM, an IC50 (SARS-CoV 3CL^pro) of 11 nM and an IC50 (HCoV-229E 3CL^pro) of 401 nM. For the same compound, the IC50 (MERS-CoV 3CL^pro) was 263 nM.
